From US12007399B2, “Method of identifying and treating premature infants at risk for BPD” (Mallinckrodt Pharmaceuticals Ireland Limited, priority 2014, dated 2024)

What was measured:
[1] = tested on: preterm infants less than 30 weeks gestational age requiring mechanical ventilation or positive pressure support; test: Multi-center, double blind, placebo-controlled randomized clinical trial of iNO for prevention of BPD; type: in vivo, human
Text: It has been discovered that certain biomarkers present in premature infants are predictive of the risk of developing BPD and/or the likelihood of a therapeutic response to iNO to prevent BPD. As used herein, the term “therapeutic response to iNO” means that iNO administration increases the rate of survival without bronchopulmonary dysplasia (BPD) at 36 weeks of post menstrual age compared to the rate of survival […] at 36 weeks of post menstrual age in an untreated premature infant population. As used herein, the term “premature infant”, “preterm infant” and the like means infants born at less than 30 weeks gestational age. The biomarkers identified are of three types: a) the concentration of metabolites of NO, such as nitrite and nitrate, in blood or plasma, b) the concentration of NO in exhaled air, and c) the presence or absence of a mutation in the eNOS gene that decreases endogenous NO production, or any combination thereof.
A multi-center, double blind, placebo-controlled randomized clinical trial was conducted to examine the efficacy of iNO in preterm infants less than 30 weeks gestational age and less than 1250 grams who required mechanical ventilation or positive pressure support on days 5 to 14 after birth. […]

[2] = tested on: premature infants between 7 and 21 days of age requiring ventilator support; conditions: decreasing concentrations from 20 ppm, minimum of 24 days; cited from earlier work
[3] = LC/MS assay of total plasma nitrite and nitrate (NOx) in trial subjects; type: in vivo, human; conditions: per subject, nitric oxide treatment arm
Method: Because of the challenge to measure free NO in systemic circulation, the PK assessment was done via plasma concentration data of NOx (nitrite and nitrate). In addition, methemoglobin (another metabolite of NO) was used as a secondary variable for PK evaluation. This evaluation was done to understand the relationship between pharmacokinetic behavior of iNO and clinical outcomes. The sampling protocol included pre-treatment time points (less than 2 hours before initiation of NO dosing), as well as a variety of time points during iNO therapy and after discontinuation of iNO therapy.
A liquid chromatographic/mass […] (LC/MS) assay method was developed and qualified for measurement NOx in human plasma. The quantitation of NOx was performed using the ^15N-stable isotope labeled nitrate as an internal standard. Nitrate reductase and NADH was added to the samples for enzymatic reduction of nitrate to nitrite in plasma. Upon completion of the reduction reaction, acetone was added to precipitate plasma proteins. The alkylating reagent, pentafluorobenzyl bromide (PFBBr), was subsequently added to the samples to convert nitrite to a chemically stable pentafluorobenzyl derivative. After completion of derivatization, plasma supernatant was injected into the LC/MS for analysis. Plasma concentrations of total nitrite and nitrate were measured and reported as NOx using this assay method. […]

[4] = tested on: mice with eNOS deficiency; conditions: inhaled; cited from earlier work
[5] = in vivo; cited from earlier work

SMILES: [N]=O [NITRIC OXIDE, nitric oxide]
- Efficacy of iNO treatment ([1]; subjects having an average NOx concentration of about 20 or less): therapeutically effective
- Efficacy of iNO treatment ([1]; subjects with NOx levels from 62.3 uM to 184 uM): not effective
- Pulmonary outcome [2]: improves the pulmonary outcome
- Short term adverse effects [2]: no apparent short term adverse effects
- Lab Test Result (plasma NOx, total nitrite and nitrate) [3]: <LLOQ
- Alveolar and vascular growth [4]: stimulated alveolar and vascular growth
- Time before steady-state methemoglobin levels are attained [5]: ≥ 8 h
